Common to all, as to assay: MIC assay (broth microdilution, CLSI)
For assay [1], the system named is S. aureus clinical isolate SA 147. The following applies: Staphylococcus aureus, read-out: MIC, SA 147.
The next assay concerns MRSA BAA-44. The following applies: Staphylococcus aureus, read-out: MIC, MRSA BAA-44.
For another assay, the system named is P. aeruginosa (PAO1). It is filed as cell-based. The following applies: Pseudomonas aeruginosa, PAO1; read-out: PAO1 MIC.

SMILES strings stand for the structures. ≈ marks a conversion by molar mass, not a printed value.

Consider `Oc1c(Br)cc(I)c2nc3cc(Cl)c(Cl)cc3nc12` [Compound 14, 2-bromo-7,8-dichloro-4-iodo-1-hydroxyphenazine], for which the MIC in assay [1] was found to be 0.3 µM (≈ 0.141 µg/mL); with MRSA BAA-44, 3.13 µM (≈ 1.47 µg/mL). Turning to `Oc1ccc(I)c2nc3cc(Cl)c(Cl)cc3nc12` [Compound 12, 7,8-Dichloro-4-iodo-1-hydroxyphenazine], the MIC in the assay on P. aeruginosa (PAO1) was over 100 µM.

These data come from patent US20180312473A1, “PHENAZINE DERIVATIVES AS ANTIMICROBIAL AGENTS” (priority 2015, published 2018).
